From patent US12144869B2, “Anti-ROR1 antibody conjugates, compositions comprising anti ROR1 antibody conjugates, and methods of making and using anti-ROR1 antibody conjugates” (Sutro Biopharma, Inc., priority 2022, dated 2024)
Like-named read-outs stand apart in the source and are kept apart here.

B1: 1987-C05 HC w/hSP34 LC3: HC of lead antibody 1987-C05 co-expressed with the LC of anti-CD3 antibody "hSP34-LC3" (antibody, V domains shown)
VH: EVQLVESGGGLVQPGGSLRLSCAASGFNISDYDIHWVRQAPGKGLEWVGGIDPDDGSTDYADSVKGRFTISADTSKNTAYLQMNSLRAEDTAVYYCARDYGVFDYWGQGTLVTVSS
VL: QTVVTQEPSLTVSPGGTVTLTCGSSTGAVTSGYYPNWFQQKPGQAPRGLIGGTKFLAPGTPARFSGSLLGGKAALTLSGVQPEDEAEYYCALWYSNRWVFGGGTQLTVTG
B2: 1987-C05 HC w/hOKT3 LC1: HC of lead antibody 1987-C05 co-expressed with the LC of anti-CD3 antibody "hOKT3-LC1" (antibody, V domains shown)
VH: EVQLVESGGGLVQPGGSLRLSCAASGFNISDYDIHWVRQAPGKGLEWVGGIDPDDGSTDYADSVKGRFTISADTSKNTAYLQMNSLRAEDTAVYYCARDYGVFDYWGQGTLVTVSS
VL: DIQMTQSPSSLSASVGDRVTITCSASSSVSYMNWYQQKPGKAPKRLIYDTSKLASGVPSRFSGSGSGTEYTLTISSLQPEDFATYYCQQWSSNPFTFGQGTKLEIK
B3: SRP2196-C02 (antibody, V domains shown)
VH: EVQLVESGGGLVQPGGSLRLSCAASGFNITGYHIHWVRQAPGKGLEWVGFISPNSGWTYSADSVKGRFTISADTSKNTAYLQMNSLRAEDTAVYYCARDSRRYVRPFDYWGQGTLVTVSS
VL: QAVVTQESALTTSPGETVTLTCRSSTGAVTTSNYANWVQEKPDHLFTGLIGGTNKRAPGVPARFSGSLIGDKAALTITGAQTEDEAIYFCALWYSNLWVFGGGTKLTVL
B4: SRP2196-C03 (antibody, V domains shown)
VH: EVQLVESGGGLVQPGGSLRLSCAASGFNITGYYIHWVRQAPGKGLEWVGQISPNSGSTYSADSVKGRFTISADTSKNTAYLQMSSLRAEDTAVYYCARDSRRYVLSWDYWGQGTLVTVSS
VL: QAVVTQESALTTSPGETVTLTCRSSTGAVTTSNYANWVQEKPDHLFTGLIGGTNKRAPGVPARFSGSLIGDKAALTITGAQTEDEAIYFCALWYSNLWVFGGGTKLTVL
B5: SRP2196-C04 (antibody, V domains shown)
VH: EVQLVESGGGLVQPGGSLRLSCAASGFNITGYYIHWVRQAPGKGLEWVGFIAPLSGSTHNADSVKGRFTISADTSKNTAYLQMNSLRAEDTAVYYCARESRRYVNPWDYWGQGTLVTVSS
VL: QAVVTQESALTTSPGETVTLTCRSSTGAVTTSNYANWVQEKPDHLFTGLIGGTNKRAPGVPARFSGSLIGDKAALTITGAQTEDEAIYFCALWYSNLWVFGGGTKLTVL
B6: SRP2196-A03 (antibody, V domains shown)
VH: EVQLVESGGGLVQPGGSLRLSCAASGFNITQYHIHWVRQAPGKGLEWVGYISPNSGSTHEADSVKGRFTISADTSKNTAYLQMNSLRAEDTAVYYCARDSRRYVRGWDYWGQGTLVTVSS
VL: QAVVTQESALTTSPGETVTLTCRSSTGAVTTSNYANWVQEKPDHLFTGLIGGTNKRAPGVPARFSGSLIGDKAALTITGAQTEDEAIYFCALWYSNLWVFGGGTKLTVL

Columns and labels:
[1] = system: ROR1 positive Ntera-2 cell; test: In vitro cell killing of ROR1 ADCs on Ntera-2; type: cell-based; conditions: for EC50: read-out: NTERA-2 EC50
Protocol: (§1) Anti-ROR1 antibody was conjugated to different linker-warheads described herein at different DARs and the cell killing activity of the ADCs were evaluated on ROR1 positive Ntera-2 cell and ROR1 negative MCF7 cells.
(§2) Ntera-2 or MCF7 cell at 625 cells/25 μL were seeded in a 384-well flat bottom white polystyrene plate one day before the assay start. ADCs were formulated at 2× starting concentration. Filter sterilized samples were serial diluted (1:3) under sterile conditions and added onto cells in triplicates. Plates were cultured at 37° C. in a CO2 incubator for 120 hours. For cell viability measurement, 30 microliter of Cell Titer-Glo® reagent (Promega Corp, Madison, WI) was added into each well, and plates processed as per product instructions. Relative luminescence was measured on an ENVISION® plate reader (Perkin-Elmer; Waltham, MA). Relative luminescence readings were converted to % viability using untreated cells as controls. Data was fitted with non-linear regression analysis, using log (inhibitor) vs. response, variable slope, 4-parameter fit equation using GraphPad Prism.
To evaluate if the cell killing activity of anti-ROR1 ADCs is dependent on antibody binding to ROR1 expressed on cell surface, the same linker-warheads (LP3, LP4) were conjugated to an anti-GFP antibody and the cell killing of the anti-ROR1 and anti-GFP ADCs were evaluated in cell killing assays on ROR1 positive Ntera-2 cell and ROR1 negative MCF7 cells. […]

ROR1 negative MCF7 cells = test: In vitro cell killing of ROR1 ADCs on MCF7; type: cell-based; conditions: for EC50: read-out: MCF-7 EC50
Protocol: as §1, §2
To evaluate if the cell killing activity of anti-ROR1 ADCs is dependent on antibody binding to ROR1 expressed on cell surface, the same linker-warheads (LP3, LP4) were conjugated to an anti-GFP antibody and the cell killing of the anti-ROR1 and anti-GFP ADCs were evaluated in cell killing assays on ROR1 positive Ntera-2 cell and ROR1 negative MCF7 cells.

[2] = target: T1, hROR1 (ROR1-extracellular domain) (Homo sapiens, UniProt Q01973); test: Biacore off-rate and kinetic analysis, hROR1 extracellular domain; type: binding; conditions: for KD: Table 7, sample ROR1 ECD, 1987-C05 HC with different LCs; for KD (SPR binding kinetics): hROR1, 1987-C05 variants
T1 construct: the ROR1-frizzled domain (hROR1-Fz) or the ROR1-extracellular domain (hROR1); purchased Acro Biosystems
Protocol: (§3) Anti-Fc polyclonal antibodies were immobilized onto a CMS chip (GE Life Sciences) using amine coupling chemistry (from Amine Coupling Kit, GE Life Sciences). The immobilization steps were carried out at a flow rate of 25 μL/min in 1×HBS-EP+buffer (GE Life Sciences; 10× Stock diluted before use). The sensor surfaces were activated for 7 min with a mixture of NHS (0.05 M) and EDC (0.2 M). The Anti-Fc antibodies were injected over all 4 flow cells at a concentration of 25 ug/ml in 10 mM sodium acetate, pH 4.5, for 7 min. Ethanolamine (1 M, pH 8.5) was injected for 7 min to block any remaining activated groups. An average of 12,000 response units (RU) of capture antibody was immobilized on each flow cell.
(§4) Off-rate and kinetic binding experiments were performed at 25° C. using 1×HBS-EP+buffer. Test and control antibodies were injected over the anti-Fc surface at concentrations of 5-10 μg/mL for 12 seconds at a flow rate of 10 μL/min on flow cells 2, 3 and 4, followed by a buffer wash for 30 seconds at the same flow rate. Kinetic characterization of antibody samples was carried out with a range of antigen concentrations from 1-100 nM and 1 injection of 0 nM antigen (for example, 100, 50, 25, 6.25, 1.56 and 0 nM). After capturing ligand (antibody) on the anti-Fc surface, the analyte (hROR1, Fz or Kr domains, Acro Biosystems, Delaware) was bound for 180 seconds, followed by a 600 second dissociation phase at a flow rate of 50 μL/min. Between each ligand capture and analyte binding cycle, regeneration was carried out using 2 injections of 10 mM Glycine pH 2.0 for 30 seconds at 30 μL/min, followed by a 30 second buffer wash step.
(§5) The data was fit with the Biacore T200 Evaluation software, using a 1-1 Langmuir binding model. KD (affinity, nM) was determined as a ratio of the kinetic rate constants calculated from the fits of the association and dissociation phases.
(§6) For anti-CD3-LC-containing IgGs that had detectable ROR1-binding in ELISA (1944-A07 and 1987-C05 variants), those antibodies were further tested for binding by surface plasmon resonance (SPR). Binding kinetics were assessed to the ROR1-frizzled domain (hROR1-Fz) or the ROR1-extracellular domain (hROR1) for 1944-A07 and 1987-C05 variants, respectively. Briefly, anti-ROR1 antibodies were captured via anti-human Fc polyclonal antibodies immobilized to a CM5 chip, and ROR1 recombinant proteins were flowed across the surface to assess binding kinetics. hROR1 or hROR1-Fz domain (Acro Biosystems, Delaware) binding was tested at 100, 50, 25, 6.25, 1.5625 nM. The data was fit with the Biacore™ T200 Evaluation software, using a 1-1 Langmuir binding model. KD (affinity, nM) was determined as a ratio of the kinetic rate constants calculated from the fits of the association and dissociation phases.

[3] = Differential scanning fluorimetry (protein thermal shift; TM1/TM2); type: physicochemical; conditions: Table 11; melting temperature of the Fab domain
Protocol: A protein thermal shift assay was carried out by mixing the protein to be assayed with an environmentally sensitive dye (SYPRO Orange, Life Technologies Cat #S-6650) in a phosphate buffered solution (PBS), and monitoring the fluorescence of the mixture in real time as it underwent controlled thermal denaturation. Protein solutions between 0.2-2 mg/mL were mixed at a 1-1 volumetric ratio with a 1-500 PBS-diluted solution of SYPRO Orange (SYPRO Orange stock dye is 5000× in DMSO). 10 μL aliquots of the protein-dye mixture were dispensed in quadruplicate in a 384-well microplate (Bio-Rad Cat #MSP-3852), and the plate was sealed with an optically clear sealing film (Bio-Rad Cat #MSB-1001) and placed in a 384-well plate real-time thermocycler (Bio-Rad CFX384 Real Time System). The protein-dye mixture was heated from […], at increments of 0.1° C. per cycle (˜1.5° C. per minute), allowing 3 seconds of equilibration at each temperature before taking a fluorescence measurement. At the end of the experiment, the transition melting temperatures (TM1 and TM2) were determined using the Bio-Rad CFX manager software. TM1 represents the melting temperature of the Fc domain. TM2 represents the melting temperature of the Fab domain.
For the thermal stability of an antibody, the first melting peak (Tm1) coincides with the unfolding of the CH2 domain (FC stability), while the second melting peak (Tm2) occurs upon unfolding of the Fab domain.

human ROR1-Fz = target: T2, human ROR1-Fz (Homo sapiens, UniProt Q01973); test: Biacore off-rate and kinetic analysis, ROR1-Fz; type: binding; conditions: Table 11; SP34 light chain
T2 construct: Frizzled (Fz, residues 165-305); His6 (C); purchased Acro Biosystems; host or cells: HEK293
Protocol: as §3, §4, §5, §6

[4] = NTERA2, Table 13, ROR1 positive Ntera-2, 120 hours
[5] = Table 13, ROR1 positive Ntera-2, 120 hours
[6] = Homo sapiens, Table 13, ROR1 negative MCF7, 120 hours
[7] = Table 13, ROR1 negative MCF7, 120 hours

Molecule | NTERA-2 Span [1, 5] | MCF-7 Span (ROR1 negative MCF7 cells; [7]) | TM2 (° C.) [3] | Biacore human ROR1-Fz ka (human ROR1-Fz) | Biacore human ROR1-Fz kd (human ROR1-Fz) | other results
CC[C@@]1(O)C(=O)OCc2c1cc1n(c2=O)Cc2c-1nc1cc(F)c(C)c3c1c2[C@@H](NC(=O)CN)CC3 [Gly-Exatecan] | 98% | 73% |  |  |  | EC50 [1, 4]: 6720 pM; EC50 (ROR1 negative MCF7 cells; [6]): 169 pM
COc1cccc2c1C(=O)c1c(O)c3c(c(O)c1C2=O)C[C@@](O)(C(=O)NCCN)C[C@@H]3O[C@H]1C[C@H]2[C@H](O[C@@H]3[C@@H](OC)OCCN32)[C@H](C)O1 [PNU-EDA] | 99% | 85% |  |  |  | EC50 [1, 4]: 26 pM; EC50 ([1]; NTERA2, Table 15, ROR1 positive Ntera-2 cells, 120 hours, Cell Titer-Glo): 27 pM; NTERA-2 Span (%) ([1]; Table 15, ROR1 positive Ntera-2 cells, 120 hours, Cell Titer-Glo): 98%; EC50 (ROR1 negative MCF7 cells; [6]): 300 pM; EC50 (ROR1 negative MCF7 cells; Homo sapiens, Table 15, ROR1 negative MCF7 cells, 120 hours, Cell Titer-Glo): 250 pM; MCF-7 Span (%) (ROR1 negative MCF7 cells; Table 15, ROR1 negative MCF7 cells, 120 hours, Cell Titer-Glo): 85%
CC[C@@]1(O)C(=O)OCc2c1cc1n(c2=O)Cc2c-1nc1cc(F)c(C)c3c1c2[C@@H](NC(=O)CO)CC3 [Dxd] | 99% | 63% |  |  |  | EC50 [1, 5]: 260 pM; EC50 (ROR1 negative MCF7 cells; [7]): 830 pM
B1 |  |  |  |  |  | KD [2]: Not detected; KD (SPR binding kinetics) [2]: no detectable binding
B2 |  |  |  |  |  | KD [2]: Not detected; KD (SPR binding kinetics) [2]: no detectable binding
B3 |  |  | 67 °C | 119000 M⁻¹ s⁻¹ | 0.00036 s⁻¹ | 
B4 |  |  | 69 °C | 143000 M⁻¹ s⁻¹ | 0.000461 s⁻¹ | 
B5 |  |  | 70 °C | 131000 M⁻¹ s⁻¹ | 0.000704 s⁻¹ | 
B6 |  |  | 70 °C | 169000 M⁻¹ s⁻¹ | 0.000275 s⁻¹ | 
